PMC6821791, “Phase I Trial of Pyragrel, a Novel Thromboxane Synthetase Inhibitor, to Evaluate the Safety, Tolerability, and Pharmacokinetics in Healthy Volunteers” (Frontiers in Pharmacology, 2019)

Experiments:
[1] = Part IV 3×3 crossover study, plasma pharmacokinetics; format: in vivo, human; details: 3 h infusion, plasma, n=12, mean ± SD
Procedure: (§1) Pyragrel administration regimens are as follows: In the single-escalating-dose study (Part I), a total of 52 subjects are enrolled to receive one of three treatments (pyragrel, ozagrel, or placebo, diluted in 500 Ml normal saline) as a 3-h i.v. infusion. Six dose levels of pyragrel (30, 60,120, 180, 240, 300 mg) were intravenously infused to healthy subjects. Of the 12 subjects each at the first three dose groups (30, 60, and 120 mg), 8 received pyragrel, 2 received ozagrel (80 mg), and 2 received placebo. Eight subjects were assigned as 4/2/2 for pyragrel, ozagrel, and placebo at the 180 mg level. Only four subjects were enrolled at the 240- and 300-mg group each; all received pyragrel. […] In the saline-volume-changed study (Part II), the safety and pharmacokinetics of pyragrel were assessed by decreasing the volume of dilution saline. Four subjects received a single 3 h infusion of pyragrel 240 mg diluted in 250 ml saline instead of the 500 ml used in Part I. Blood samples were collected at multiple time points before and after the initiation of the infusion in Part I and Part II; 15 blood samples were predetermined as follows: before drug administration (time 0), 0.5, 1, 2, 3 (4 samples collected during infusion), 3.25, 3.5, 4, 5, 7, 9, 11, 15, 24, and 48 h (10 samples collected post infusion) after the initiation of the infusion. In the multiple-dose study (Part III), 12 subjects received a single 3 h infusion of 180 mg pyragrel (diluted in 250 ml saline) on Day 1 and Day 6 and twice 3 h infusion of 180 mg pyragrel from Day 2 to 5; 14 blood samples were collected on Day 1 and Day 6 before drug administration (0 h), 0.5, 1, 2, 3, 3.25, 3.5, 4, 5, 7, 9, 11, 15, 24 h after the initiation of the infusion; moreover, 5 ml cubital vein blood was collected each time right before pyragrel infusion on Day 2 to Day 5. In the 3×3 crossover study (Part IV), 12 subjects were randomized to receive each of the three dosing groups (60, 120, or 240 mg) of pyragrel (diluted with 250 ml saline, 3 h infusion) per period, with a 7-day washout period between doses. Sixteen blood samples were collected as follows: before drug administration (0 h), 0.17, 0.35, 0.5, 1, 2, 3, 3.25, 3.5, 4, 5, 7, 9, 11, 15, and 24 h after the initiation of the infusion at each period. In the prolonged infusion study (Part V), four subjects received continuous 24 h infusion of pyragrel 360 mg (diluted in 600 ml saline); 19 blood samples were collected as follows: before drug administration (0 h), 0.25, 0.5, 1, 2, 4, 8, 12, 16, 20 (nine samples collected during administration), 24.25, 24.5, 25, 26, 28, 30, 32, 36, and 48 h after the initiation of the infusion (details shown in Figure 1 ). In all five cohorts, 5 ml of cubital vein blood was collected with a sodium heparin anticoagulant tube and centrifuged at 3000 r·min^-1. Each plasma sample was divided into two aliquots and stored at −20°C until further bioanalysis. […] Briefly, 10 µl of the extract drug from […] was injected onto a Zorbax EcLipse XDB C18 column (2.1 mm × 150 mm, 5 μm) (Agilent, USA) using isocratic elution with a mobile phase composed of methanol, water, and formic acid (65:35:0.1, v/v/v). Determination of the analytes was achieved by tandem-mass spectrometry with positive electrospray ionization.
(§2) Pharmacokinetic parameters were calculated using the noncompartmental model (NCA module), WinNonlin 6.1 (Pharsight Corporation, Mountain View, CA, USA). Statistical analysis was performed with SPSS 18. The actual dosing and sampling times were utilized in the analysis. Pharmacokinetic parameters were summarized by dose regimens using descriptive statistics, including n, mean, and the coefficient of variation (CV). For Tmax, only n, min, median, and max were reported.
In Part IV, a multivariate ANOVA model containing subjects, treatments (60, 120, or 240 mg), periods, and gender was used to analyze log-transformed Cmax and AUC. Tmax was analyzed using various related Friedman nonparametric tests.

[2] = Part IV urinary excretion of pyragrel and four metabolites; format: in vivo, human; details: for Total cumulative urine excreted amounts over 24 h: 12 subjects; for Accumulative urinary excretion rate: over 24 h; for Cumulative urinary drug recovery (normalized to pyragrel) within 24 h: n=12, Mean ± SD
Procedure: Urine samples were collected after the initiation of pyragrel infusion as follows in Part IV: 0–3 (3 h infusion period), 3–7, 7–11, 11–15, and 15–24 h after pyragrel administration during each period. […] Production of 11-dehydro-thrombxane B2 (11-D-HTXB2) in urine sample was detected by ELISA method.

[3] = Part II saline-volume-changed study, plasma pharmacokinetics; format: in vivo, human; details: single-dose infusion of 240 mg pyragrel diluted in 250 ml saline, n=4
Procedure: as §1, §2

[4] = Acute toxicity study in mice; format: in vivo
[5] = Part III multiple-dose study, plasma pharmacokinetics; format: in vivo, human
Procedure: as §1, §2

[6] = single 3 h infusion of pyragrel 60 mg
[7] = single 3 h infusion of pyragrel 240 mg
[8] = Part III, multiple dose, 3-h infusions of pyragrel 180 mg for 6 days, plasma, n=12
[9] = Part III, single dose, 3-h infusion of pyragrel 180 mg, plasma, n=12

COc1cc(C=CC(=O)[O-])ccc1OCc1nc(C)c(C)nc1C.[Na+] [Pyragrel, sodium pyragrel]
AUCINF ([1]; pyragrel 60 mg): 2,003.8 ± 318.7 h*µg·L^-1
AUClast ([1]; pyragrel 60 mg): 1,990.8 ± 317.9 h*µg·L^-1
Cl ([1]; pyragrel 60 mg): 30.65 ± 4.91 L/h
Cmax ([1]; pyragrel 60 mg): 641.2 ± 107.8 µg/L
Tmax ([1]; pyragrel 60 mg): 2.75 ± 0.45 h
Vz ([1]; pyragrel 60 mg): 184.5 ± 80.37 L
t1/2 ([1]; pyragrel 60 mg): 4.28 ± 1.84 h
AUCINF ([1]; pyragrel 120 mg): 4,325.2 ± 541.5 h*µg·L^-1
AUClast ([1]; pyragrel 120 mg): 4,317.4 ± 541.1 h*µg·L^-1
Cl ([1]; pyragrel 120 mg): 28.18 ± 3.83 L/h
Cmax ([1]; pyragrel 120 mg): 1505.6 ± 178.7 µg/L
Tmax ([1]; pyragrel 120 mg): 2.58 ± 0.51 h
Vz ([1]; pyragrel 120 mg): 197.6 ± 77.76 L
t1/2 ([1]; pyragrel 120 mg): 4.82 ± 1.63 h
AUCINF ([1]; pyragrel 240 mg): 9,292.8 ± 1,468.0 h*µg·L^-1
AUClast ([1]; pyragrel 240 mg): 9,279.1 ± 1,466.3 h*µg·L^-1
Cl ([1]; pyragrel 240 mg): 26.45 ± 4.34 L/h
Cmax ([1]; pyragrel 240 mg): 3165.7 ± 426.4 µg/L
Tmax ([1]; pyragrel 240 mg): 2.92 ± 0.29 h
Vz ([1]; pyragrel 240 mg): 194.3 ± 72.28 L
t1/2 ([1]; pyragrel 240 mg): 5.06 ± 1.58 h
Urinary excretion, share of the total drug amount ([2]; Part IV, three dose groups, pyragrel plus metabolites): more than 70%
Total cumulative urine excreted amounts over 24 h [2, 6]: 44.80 mg
Accumulative urinary excretion rate [2, 6]: 74.67%
Total cumulative urine excreted amounts over 24 h ([2]; single 3 h infusion of pyragrel 120 mg): 85.07 mg
Total cumulative urine excreted amounts over 24 h [2, 7]: 175.83 mg
Accumulative urinary excretion rate [2, 7]: 73.26%
Cumulative urinary drug recovery (normalized to pyragrel) within 24 h ([2]; single dose of pyragrel 60 mg): 0.94 ± 0.30%
Cumulative urinary drug recovery (normalized to pyragrel) within 24 h ([2]; single dose of pyragrel 120 mg): 0.67 ± 0.14%
Cumulative urinary drug recovery (normalized to pyragrel) within 24 h ([2]; single dose of pyragrel 240 mg): 0.79 ± 0.28%
AUCINF [3]: 9.63878 ± 1.48708 µg·h/mL
AUClast [3]: 9.60011 ± 1.4461 µg·h/mL
Cl [3]: 25.38 ± 4.18 L/h
Cmax [3]: 3.36073 ± 0.62263 µg/mL
MRTINF [3]: 1.02 ± 0.33 h
MRTlast [3]: 54 ± 9.6 min
Tmax [3]: 3.00 ± 0.00 h
Vz [3]: 221.12 ± 75.68 L
t1/2 [3]: 6.19 ± 2.63 h
λz [3]: 0.13 ± 0.04 h⁻¹
LD50 [4]: 929.7 mg/kg
AUCINF [5, 8]: 6,939.5 ± 2,072.8 h*µg·L^-1
AUCTAU [5, 8]: 6,854.5 ± 2,062.7 h*µg·L^-1
AUClast [5, 8]: 6,909.9 ± 2066.8 h*µg·L^-1
Cl [5, 8]: 28.49 ± 8.49 L/h
Cmax [5, 8]: 2,447.8 ± 825.3 µg·L^-1
Tmax [5, 8]: 2.42 ± 0.67 h
t1/2 [5, 8]: 6.51 ± 2.73 h
Cmin ([5]; Part III, pyragrel 180 mg, printed in column Single dose, footnote a: steady-state trough concentration, n=12): 4.22 ± 2.26^a µg·L^-1
Cavg ([5]; Part III, pyragrel 180 mg, printed in column Single dose, footnote b: steady-state peak concentration, n=12): 571.2 ± 171.9^b µg·L^-1
AUCINF [5, 9]: 6,680.3 ± 1,668.0 h*µg·L^-1
AUClast [5, 9]: 6,663.3 ± 1665.7 h*µg·L^-1
Cl [5, 9]: 28.85 ± 8.75 L/h
Tmax [5, 9]: 2.83 ± 0.39 h
Vz [5, 9]: 226.0 ± 141.7 L
t1/2 [5, 9]: 5.12 ± 1.91 h
Cmax ([5]; Part III, single dose, 3-h infusion of pyragrel 180 mg, plasma, n=12, footnote c: steady-state average concentration): 2,311.9 ± 514.4^c µg·L^-1
Accumulation on repeated dose, in words ([5]; repeated dose of pyragrel 180 mg for 6 days (once- or twice-daily dosing)): no accumulation
